Assay results taken from PubChem BioAssay AID1845195 (Molecular Pharmacology Branch, DTP, NCI, 2023).

Test system: 156681-154-R-J1 tumor spheroid viability
Assay: Anticancer human tumor 156681-154-R-J1 patient-derived melanoma cell line growth inhibition
Conditions: spheroids with HUVEC and MSC; for IC50: curve of first compound; for viability, T/C: stronger effect = lower value
Procedure, shortened: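 Single agents and combinations were tested on spheroids built from tumor cells plus HUVEC and hMSC, at half-log dilutions starting at or near clinical Cmax, else 10 microM; final DMSO 0.25% (v/v).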

[1] = second compound 1 µM, first compound 0.0316 µM
[2] = second compound 1 µM, first compound 0.1 µM
[3] = second compound 1 µM, first compound 0.316 µM
[4] = second compound 1 µM, first compound 1 µM
[5] = second compound 1 µM, first compound 3.16 µM
[6] = second compound 1 µM, first compound 10 µM
[7] = second compound 3.16 µM, first compound 0.0316 µM
[8] = second compound 3.16 µM, first compound 0.1 µM
[9] = second compound 3.16 µM, first compound 0.316 µM
[10] = second compound 3.16 µM, first compound 1 µM
[11] = second compound 3.16 µM, first compound 3.16 µM
[12] = second compound 3.16 µM, first compound 10 µM
[13] = second compound 10 µM, first compound 0.0316 µM
[14] = second compound 10 µM, first compound 0.1 µM
[15] = second compound 10 µM, first compound 0.316 µM
[16] = second compound 10 µM, first compound 1 µM
[17] = second compound 10 µM, first compound 3.16 µM
[18] = second compound 10 µM, first compound 10 µM
[19] = second compound 31.6 µM, first compound 0.0316 µM
[20] = second compound 31.6 µM, first compound 0.1 µM
[21] = second compound 31.6 µM, first compound 0.316 µM
[22] = second compound 31.6 µM, first compound 1 µM
[23] = second compound 31.6 µM, first compound 3.16 µM
[24] = second compound 31.6 µM, first compound 10 µM
[25] = second compound 100 µM, first compound 0.0316 µM
[26] = second compound 100 µM, first compound 0.1 µM
[27] = second compound 100 µM, first compound 0.316 µM
[28] = second compound 100 µM, first compound 1 µM
[29] = second compound 100 µM, first compound 3.16 µM
[30] = second compound 100 µM, first compound 10 µM
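Note: spheroids exposed to compounds for 7 days before readout.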
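Throughout, for viability, T/C: percent of vehicle control viability where 100% = DMSO-treated spheroids.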

Row | SMILES | IC50 (second compound 1 µM) | IC50 (second compound 3.16 µM) | IC50 (second compound 10 µM) | IC50 (second compound 31.6 µM) | IC50 (second compound 100 µM) | viability, T/C [1] | viability, T/C [2] | viability, T/C [3] | viability, T/C [4] | viability, T/C [5] | viability, T/C [6] | viability, T/C [7] | viability, T/C [8] | viability, T/C [9] | viability, T/C [10] | viability, T/C [11] | viability, T/C [12] | viability, T/C [13] | viability, T/C [14] | viability, T/C [15] | also measured
1 | CC(C)n1c(=O)n(C)c2cnc3cc(F)c(-c4ccc(OCCCN5CCCCC5)nc4)cc3c21 + Cn1nnc2c(C(N)=O)ncn2c1=O | > 10 µM | > 10 µM | > 10 µM | < 0.0316 µM | < 0.0316 µM | 116% | 122% | 110% | 104% | 108% | 95.1% | 85.2% | 83% | 111% | 123% | 98.9% | 71.4% | 78.5% | 63.5% | 70.8% | viability, T/C [16]: 72.4%; viability, T/C [17]: 75.5%; viability, T/C [18]: 64.1%; viability, T/C [19]: 47.2%; viability, T/C [20]: 54.5%; viability, T/C [21]: 53%; viability, T/C [22]: 48.3%; viability, T/C [23]: 52%; viability, T/C [24]: 55.8%; viability, T/C [25]: 51.9%; viability, T/C [26]: 43.3%; viability, T/C [27]: 46.8%; viability, T/C [28]: 48.2%; viability, T/C [29]: 49.5%; viability, T/C [30]: 43.4%
2 | COc1ccc([C@@H](O)c2cc(-c3ncnc4cc(N5CCOCC5)ccc34)c(F)cc2Cl)nn1 + Cn1nnc2c(C(N)=O)ncn2c1=O | > 10 µM | > 10 µM | 7.33 µM | > 10 µM | > 10 µM | 104% | 98.4% | 86% | 70.5% | 72.2% | 53.3% | 101% | 111% | 77.7% | 79.1% | 62% | 54.8% | 71.5% | 85.4% | 73.8% | viability, T/C [16]: 66.2%; viability, T/C [17]: 70.7%; viability, T/C [18]: 42.9%; viability, T/C [19]: 60%; viability, T/C [20]: 67.3%; viability, T/C [21]: 71.8%; viability, T/C [22]: 47.2%; viability, T/C [23]: 77.4%; viability, T/C [24]: 45.2%; viability, T/C [25]: 55%; viability, T/C [26]: 55.7%; viability, T/C [27]: 48.1%; viability, T/C [28]: 64.4%; viability, T/C [29]: 54.7%; viability, T/C [30]: 48.4%
